Values after ≈ are worked out from the molar mass of the structure shown.
What was measured:
Assay type in all cases: functional
Escherichia coli [1] = experiment: Minimum inhibitory concentration (MIC) against Escherichia coli
Escherichia coli [2] = experiment: Minimum bacterial concentration (MBC) against Escherichia coli
Pseudomonas aeruginosa [3] = experiment: Minimum inhibitory concentration (MIC) against Pseudomonas aeruginosa
Pseudomonas aeruginosa [4] = experiment: Minimum bacterial concentration (MBC) against Pseudomonas aeruginosa
Staphylococcus aureus [5] = experiment: Minimum bacterial concentration (MBC) against Staphylococcus aureus
Staphylococcus aureus [6] = experiment: Minimum inhibitory concentration (MIC) against Staphylococcus aureus

| Molecule | MIC (Escherichia coli [1]) [mg/L] | MBC (Escherichia coli [2]) [mg/L] | MIC (Pseudomonas aeruginosa [3]) [mg/L] | MBC (Pseudomonas aeruginosa [4]) [mg/L] | MBC (Staphylococcus aureus [5]) [mg/L] | MIC (Staphylococcus aureus [6]) [mg/L] |
| --- | --- | --- | --- | --- | --- | --- |
| GENTAMICIN | 64 | 128 | 8 | 12 | 4 | 2 |
| CCCCCCCn1ccnc1 | 50 (≈ 301 µM) | 100 (≈ 601 µM) | 83 (≈ 499 µM) | 166 (≈ 998 µM) | 66 (≈ 397 µM) | 33 (≈ 198 µM) |
| CCCCCCCCCCCn1ccnc1 | 1110 (≈ 4990 µM) | 2220 (≈ 9980 µM) | 2220 (≈ 9980 µM) | 4440 (≈ 20000 µM) | 2220 (≈ 9980 µM) | 1110 (≈ 4990 µM) |
| CCCCCCCCCCn1ccnc1 | 208 (≈ 998 µM) | 416 (≈ 2000 µM) | 416 (≈ 2000 µM) | 832 (≈ 3990 µM) | 416 (≈ 2000 µM) | 208 (≈ 998 µM) |
| CCCCCCCCCCCCn1ccnc1C | 17500 (≈ 69900 µM) | 18800 (≈ 74900 µM) | – | – | 18800 (≈ 74900 µM) | 17500 (≈ 69900 µM) |
| CCCCCCCCCCCCCn1ccnc1 | 18800 (≈ 74900 µM) | 20000 (≈ 79900 µM) | 20000 (≈ 79900 µM) | 21200 (≈ 84900 µM) | 18800 (≈ 74900 µM) | 17500 (≈ 69900 µM) |
| CCCCCCCCCCCCn1ccnc1 | 14200 (≈ 59900 µM) | 15300 (≈ 64900 µM) | 16500 (≈ 69900 µM) | 17700 (≈ 74900 µM) | 15300 (≈ 64900 µM) | 14200 (≈ 59900 µM) |
| CCCCCCCCn1ccnc1 | 45 (≈ 250 µM) | 90 (≈ 499 µM) | 54 (≈ 300 µM) | 108 (≈ 599 µM) | 45 (≈ 250 µM) | 27 (≈ 150 µM) |
| CCCCCCn1ccnc1 | 91 (≈ 598 µM) | 182 (≈ 1200 µM) | 122 (≈ 801 µM) | 243 (≈ 1600 µM) | 91 (≈ 598 µM) | 46 (≈ 302 µM) |
| CCCCn1ccnc1 | 99 (≈ 797 µM) | 198 (≈ 1590 µM) | 248 (≈ 2000 µM) | 496 (≈ 3990 µM) | 174 (≈ 1400 µM) | 87 (≈ 701 µM) |
| CCCCCCCCCCCCCCn1ccnc1 | 21100 (≈ 79900 µM) | 22400 (≈ 84900 µM) | 23800 (≈ 89800 µM) | 25100 (≈ 94800 µM) | 21100 (≈ 79900 µM) | 19800 (≈ 74900 µM) |
| CCCCCCCCn1cc([N+](=O)[O-])nc1C | 31 (≈ 130 µM) | 60 (≈ 251 µM) | – | – | 48 (≈ 201 µM) | 24 (≈ 100 µM) |
| CCCCCn1ccnc1 | 97 (≈ 702 µM) | 193 (≈ 1400 µM) | 138 (≈ 998 µM) | 276 (≈ 2000 µM) | 138 (≈ 998 µM) | 69 (≈ 499 µM) |
| CCCn1ccnc1 | 110 (≈ 999 µM) | 220 (≈ 2000 µM) | 550 (≈ 4990 µM) | 1100 (≈ 9990 µM) | 198 (≈ 1800 µM) | 44 (≈ 399 µM) |
| CCCCCCCCCn1ccnc1 | 19 (≈ 97.8 µM) | 39 (≈ 201 µM) | 39 (≈ 201 µM) | 78 (≈ 401 µM) | 19 (≈ 97.8 µM) | 10 (≈ 51.5 µM) |
| CCn1ccnc1 | 480 (≈ 4990 µM) | 960 (≈ 9990 µM) | 960 (≈ 9990 µM) | 1920 (≈ 20000 µM) | 960 (≈ 9990 µM) | 480 (≈ 4990 µM) |
| CCCCCCn1ccnc1C | 25 (≈ 150 µM) | 50 (≈ 301 µM) | – | – | 50 (≈ 301 µM) | 25 (≈ 150 µM) |
| CCCCn1cc([N+](=O)[O-])nc1C | 18 (≈ 98.2 µM) | 37 (≈ 202 µM) | – | – | 33 (≈ 180 µM) | 17 (≈ 92.8 µM) |

Reference: ChEMBL document CHEMBL1144951, “Synthesis of N-alkylated derivatives of imidazole as antibacterial agents” (2003)
